Assay [1] deals with Trachea. The assay can be described thus: Inhibition of carbachol-induced contraction of Sprague-Dawley rat tracheal rings after 30 mins by isometric tension technique. The following applies: 0.5 h. It counts as functional, tissue-based.
The test system of assay [2] is Trachea. Nature of the assay: Inhibition of acetylcholine-induced contraction of Sprague-Dawley rat tracheal rings after 30 mins by isometric tension technique. The class given is functional, tissue-based.

In assay [1], `C[C@@H]1O[C@@H](O[C@H]2[C@H](O[C@H]3CC[C@@]4(C)[C@@H](CC[C@]5(C)[C@@H]4CC=C4[C@@H]6CC(C)(C)CC[C@]6(C(=O)O)CC[C@]45C)[C@]3(C)CO)OC[C@H](O)[C@@H]2O)[C@H](O)[C@H](O)[C@H]1O` [ALPHA-HEDERIN] returned an EC50 of 1000 nM.

With `CO[C@@H]1C[C@H](O[C@H]2[C@@H](O)C[C@H](O[C@@H]3[C@@H](C)O[C@@H](O[C@H]4CC[C@@]5(C)C(=CC[C@@H]6C(=O)O[C@@H]7CO[C@]8(C)OC=C(CC[C@@H]65)[C@H]78)C4)C[C@H]3OC)O[C@@H]2C)O[C@@H](C)[C@@H]1O`, the inhibition result in assay [2] is “Dose-dependent effect”. Further, the EC50 in assay [2] (0.5 h) is 850 nM; in assay [1] it was 480 nM.

`CC(C)NC[C@H](O)c1ccc(O)c(O)c1` [LEVISOPRENALINE]: the 50% effective concentration (EC50) in assay [1] worked out at 130 nM.

The term EC50 denotes the concentration giving half of the maximal effect.

For the origin of these results see ChEMBL document CHEMBL3232968, “Potent airway smooth muscle relaxant effect of cynatratoside B, a steroidal glycoside isolated from Cynanchum stauntonii” (J Nat Prod, 2014).
